The test system of data set [1] is colon carcinoma lines that carry the 677C/T mutation in MTHFR. Description: Methotrexate added to colon carcinoma lines in culture (cell kill), lines with the MTHFR mutation. Conditions: colon carcinoma lines with the 677C/T MTHFR mutation; read-out: IC50 (concentration needed to kill half the cells). The class given is cell-based. On the procedure:
(§1) Various doses of methotrexate (a drug used in treatment of cancer and arthritis, possibly other diseases) were added to colon carcinoma lines in culture. […] To extrapolate to the human condition, patients with this MTHFR mutation might require lower doses of methotrexate for therapy, or might be subject to methotrexate toxicity at high doses.

The subject of data set [2] is colon carcinoma lines that do not carry the 677C/T mutation in MTHFR. The data set is described as follows: Methotrexate added to colon carcinoma lines in culture (cell kill), lines without the MTHFR mutation. The class given is cell-based. Conditions: colon carcinoma lines without the 677C/T MTHFR mutation; read-out: IC50 (concentration needed to kill half the cells). On the procedure:
as §1

The test system of the next data set is human MTHFR. The data set is described as follows: Enzymatic and thermolability assay of E. coli extracts expressing wild-type or mutagenized MTHFR cDNA. The class given is biochemical.

Experimental for human MTHFR: Overnight cultures of JM105™ containing vector alone, vector+wild-type MTHFR cDNA, or vector+mutagenized cDNA were grown at 370° C. in 2×YT media with 0.05 mg/ml ampicillin. Fresh 10 ml. cultures of each were inoculated with approximately 50 μL of overnight cultures for a starting O.D. of 0.05, and were grown at 370° C. to an O.D. of 1 at 420 nM. Cultures were then induced for 2 hrs. with 1 mM IPTG and pelleted. The cells were resuspended in TE buffer with 2 μg/ml aprotinin and 2 μg/ml leupeptin (3.5×wet weight of cells). Cell suspensions were sonicated on ice for 3×15 sec. to break open cell membranes and then centrifuged for 30 min. at 4° C. to pellet cell debris and unlysed cells. The supernatant was removed and assayed for protein concentration with the Bio-Rad™ protein assay. […] Enzymatic assays were performed by established procedures; pre-treating the extracts at 46° C. for 5 min. before determining activity assessed thermolability. Specific activities (nmol formaldehyde/hr./mg. protein) were calculated for the 2 cDNA-containing constructs after subtraction of the values obtained with vector alone (to subtract background E. Coli MTHFR activity).

For the compound `CN(Cc1cnc2nc(N)nc(N)c2n1)c1ccc(C(=O)N[C@@H](CCC(=O)O)C(=O)O)cc1` [methotrexate], the IC50 in data set [1] is ~20 nM; in data set [2] it was ~150 nM.

“MTHFR: recombinant human methylenetetrahydrofolate reductase, about 70 kDa, expressed in E. coli from the wild-type 2.2 kb cDNA”: the “mean specific activity before heating” value is recorded as 3.8 nmol formaldehyde/hr./mg. protein with human MTHFR (Exp. 1, vector-alone value subtracted) and 6.2 nmol formaldehyde/hr./mg. protein in the data set with human MTHFR (Exp. 2, vector-alone value subtracted).

(Values after patent US20050221355A1, “cDNA for human methylenetetrahydrofolate reductase and uses thereof” (McGill University, priority 1994, published 2005).)
